The values below come from patent publication US20240368115A1, “REGULATOR CONTAINING TRICYCLIC DERIVATIVE, PREPARATION METHOD THEREFOR AND APPLICATION THEREOF” (SHUJING BIOPHARMA CO., LTD, priority 2021, published 2024).

What all share (type): cell-based
One test deals with T1, D2S receptor (Homo sapiens, UniProt P14416).
T1 construct: expressed in transfected cells
In words: D2S receptor cAMP agonist test. The conditions noted are these: HEK293 cell strain stably expressing D2S receptor; for EC50: cAMP, forskolin 5×10^−7 M; for D2S Max Act %: positive control dopamine 1×10^−7 M. The source says: cAMP detection kit was purchased from Cisbio; an HEK293 cell strain stably expressing D2S receptor was constructed by Shanghai Shujing Biopharma Co., Ltd.; dopamine, forskolin, and IBMX were purchased from Sigma; ProxiPlate-384 well plates were purchased from PerkinElmer; HBSS was purchased from Thermo Fisher Scientific.
(§1) • (1) The cultured cells were digested with trypsin, and the cell suspension was washed with HBSS buffer after the digestion was terminated. The medium was removed by centrifugation at 200×g. The pellet was resuspended in an appropriate amount of experimental buffer, and 20 μL of cell suspension was counted using a cell counter and diluted to 0.6×10^6 cells/mL. • (2) 5 μL of cell suspension was added to a ProxiPlate-384 well plate (3×10^3 cells/well). • (3) Test compounds were serially diluted in an experimental buffer, and 5 μL of the mixed solution was transferred to the reaction plate with Bravo.

A further test concerns the target T2, D2L receptor (Homo sapiens, UniProt P14416).
T2 construct: expressed in transfected cells
In words: D2L receptor cAMP agonist test. The following applies: HEK293 cell strain stably expressing D2L receptor; for EC50: cAMP, forskolin 0.5 μM; for D2L Max Act %: positive control dopamine 1 μM. As for the experimental part: • cAMP detection kit was purchased from Cisbio; an HEK293 cell strain stably expressing D2L receptor was constructed by Shanghai Shujing Biopharma Co., Ltd.; dopamine, forskolin, and IBMX were purchased from Sigma; ProxiPlate-384 well plates were purchased from PerkinElmer; HBSS was purchased from Thermo Fisher Scientific.
• (1) The cryopreserved cells were thawed in a water bath at 37° C., the cell suspension was resuspended in HBSS buffer, and the mixed solution was centrifuged at 750 rpm for 5 min to remove the medium. The pellet was resuspended in an appropriate amount of experimental buffer, and an appropriate amount of cell suspension was diluted to 0.4×10^6 cells/mL. • (2) 5 μL of cell suspension was added to a ProxiPlate-384 well plate (2×10^3 cells/well), and the plate was centrifuged at 1000 rpm for 1 min. • (3) Test compounds were serially diluted in an experimental buffer, and 5 μL of the mixed solution was transferred to the reaction plate with Bravo.

The target in the next test is T3, 5-HT1A receptor (Homo sapiens, UniProt P08908).
T3 construct: expressed in transfected cells
T3 sequence (P08908 1-422): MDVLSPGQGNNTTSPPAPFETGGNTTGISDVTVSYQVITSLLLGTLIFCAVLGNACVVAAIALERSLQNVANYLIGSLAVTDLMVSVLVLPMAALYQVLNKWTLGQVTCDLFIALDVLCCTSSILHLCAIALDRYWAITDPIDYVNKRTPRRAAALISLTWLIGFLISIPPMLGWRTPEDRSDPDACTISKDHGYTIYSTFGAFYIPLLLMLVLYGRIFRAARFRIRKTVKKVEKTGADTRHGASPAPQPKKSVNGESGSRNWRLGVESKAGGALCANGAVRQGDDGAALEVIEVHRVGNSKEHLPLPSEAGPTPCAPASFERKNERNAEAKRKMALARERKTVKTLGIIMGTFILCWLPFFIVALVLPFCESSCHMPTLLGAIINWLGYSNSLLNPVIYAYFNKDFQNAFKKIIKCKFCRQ
Description: 5-HT1A receptor cAMP agonist test. The following applies: HEK293 cell strain stably expressing 5-HT1A receptor; for EC50: cAMP, forskolin 2.5×10^−7 M; for 5-HT1A Max Act %: positive control serotonin 10^−6 M.
From the text: • cAMP detection kit was purchased from Cisbio; an HEK293 cell strain stably expressing 5-HT1A receptor was constructed by Shanghai Shujing Biopharma Co., Ltd.; serotonin, forskolin, and IBMX were purchased from Sigma; ProxiPlate-384 well plates were purchased from PerkinElmer; HBSS was purchased from Thermo Fisher Scientific.
as §1, with “0.4×10^6” for “0.6×10^6”, “(2×10^3” for “(3×10^3”

A further test concerns the target 5-HT2A receptor (Homo sapiens, UniProt P28223). Description: Calcium flux test for 5-HT2A receptor. The following applies: CHO cell strain stably expressing 5-HT2A receptor; for IC50: calcium flux, antagonism of serotonin; for 5-HT2A Max Inh %: positive control ketanserin 10^−7 M. As for the experimental part:
• Fluo-4 calcium flux detection kit was purchased from Invitrogen; a CHO cell strain stably expressing 5-HT2A receptor was purchased from PerkinElmer; serotonin was purchased from Sigma; ketanserin was purchased from Targetmol; polylysine-coated 384-well plates and 384-well compound plates were purchased from Greiner Bio-One. Molecular Device FLIPR, Agilent Bravo liquid workstation, and Countstar BioTech cell counter.
• (1) The cryopreserved cells were rapidly thawed in a water bath at 37° C., and the cells were resuspended in a plating medium. The cryopreservation solution was removed by centrifugation at 200×g. The pellet was resuspended in an appropriate amount of plating medium, 20 μL of cell suspension was counted using a cell counter, and the cell density was diluted to 1×10^6 cells/mL. • (2) 20 μL of cell suspension was added to a polylysine-coated 384-well plate (2×10^4 cells/well). • (3) The cell plate was incubated in a 37° C./5% CO2 incubator for 16-20 h.
• (1) The cell plate was taken out from the incubator and centrifuged at 100×g to remove the medium. 20 μL of experimental buffer was added, and then 20 μL of 2× fluorescent probe solution was added. […] The cell plate and agonist positive compound plate were placed into the FLIPR instrument, the detection program was run, 10 μL of the diluted compound was transferred from the agonist compound plate to the cell plate, and the fluorescence signal was read. […] The cell plate and test compound plate were placed in the FLIPR instrument, the detection program was run, and 10 μL of the diluted compound was transferred from the test compound plate to the cell plate. […] The test compound plate was then taken out, and the agonist positive compound plate with 6×EC50 concentration was placed.
Inhibition rate (Inhibition %)=(negative control reading value−compound reading value)/(negative control reading value−positive control reading value)×100%

T1 sequence (P14416 1-414 isoform P14416-2): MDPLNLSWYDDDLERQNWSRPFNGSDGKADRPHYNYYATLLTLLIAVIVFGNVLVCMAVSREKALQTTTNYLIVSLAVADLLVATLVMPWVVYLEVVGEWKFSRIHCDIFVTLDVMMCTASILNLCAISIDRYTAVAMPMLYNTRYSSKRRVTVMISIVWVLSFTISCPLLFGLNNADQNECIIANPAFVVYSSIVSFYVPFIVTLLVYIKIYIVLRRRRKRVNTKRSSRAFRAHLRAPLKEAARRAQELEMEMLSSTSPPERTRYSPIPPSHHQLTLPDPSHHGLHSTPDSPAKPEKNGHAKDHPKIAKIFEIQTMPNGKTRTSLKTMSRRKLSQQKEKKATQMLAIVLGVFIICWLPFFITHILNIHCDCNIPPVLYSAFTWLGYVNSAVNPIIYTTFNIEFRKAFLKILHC
5-HT2A receptor, sequence (P28223 whole entry): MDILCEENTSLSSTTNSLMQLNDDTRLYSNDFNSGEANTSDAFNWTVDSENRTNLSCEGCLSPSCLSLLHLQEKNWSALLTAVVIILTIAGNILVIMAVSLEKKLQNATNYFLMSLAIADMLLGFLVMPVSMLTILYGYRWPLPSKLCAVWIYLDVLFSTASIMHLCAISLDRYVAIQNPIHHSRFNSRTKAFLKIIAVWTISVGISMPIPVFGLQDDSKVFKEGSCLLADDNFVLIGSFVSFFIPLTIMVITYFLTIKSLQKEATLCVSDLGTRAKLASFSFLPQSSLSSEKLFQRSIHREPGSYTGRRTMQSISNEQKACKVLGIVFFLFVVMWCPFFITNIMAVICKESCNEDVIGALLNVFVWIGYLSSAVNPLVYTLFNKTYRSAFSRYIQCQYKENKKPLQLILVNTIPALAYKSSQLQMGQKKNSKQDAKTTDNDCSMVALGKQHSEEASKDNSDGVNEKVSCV
T2 sequence (P14416 whole entry): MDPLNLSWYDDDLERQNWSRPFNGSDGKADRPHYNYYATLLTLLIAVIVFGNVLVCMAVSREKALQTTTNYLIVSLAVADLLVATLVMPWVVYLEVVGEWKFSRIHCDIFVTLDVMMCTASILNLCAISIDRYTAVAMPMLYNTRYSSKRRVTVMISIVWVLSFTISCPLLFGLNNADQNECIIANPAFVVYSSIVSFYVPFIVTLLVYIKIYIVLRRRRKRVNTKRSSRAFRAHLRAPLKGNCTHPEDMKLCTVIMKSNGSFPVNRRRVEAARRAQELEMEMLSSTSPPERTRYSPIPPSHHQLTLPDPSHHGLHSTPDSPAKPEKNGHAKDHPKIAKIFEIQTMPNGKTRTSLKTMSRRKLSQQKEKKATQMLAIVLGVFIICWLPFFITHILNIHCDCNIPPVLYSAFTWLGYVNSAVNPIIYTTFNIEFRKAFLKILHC

Consider `O=C1Nc2cc(OCCCCN3CCN(c4cccc5c4CCC5)CC3)ccc2C2CC12` (single isomer, unassigned) [Example 43-P1], for which, at D2S receptor, the EC50 – broadly, the concentration needed to bring the measured effect to its halfway point – worked out at 1.3 nM and the “D2S Max Act %” value is reported as 123.1%. In addition, on D2L receptor, the EC50 is 0.9 nM and the “D2L Max Act %” value came to 37.9%. Besides, at 5-HT1A receptor, a half-maximal response (EC50) required 194 nM and the “5-HT1A Max Act %” value came to 68.3%. In addition, on 5-HT2A receptor, the concentration for half-maximal inhibition (IC50) (in general, the concentration at which inhibition is half-maximal) stood at 853 nM and the “5-HT2A Max Inh %” value came out at 100.7%.
Take `O=C1Nc2cc(OCCCCN3CCN(c4cccc5c4CCC5)CC3)ccc2C2CC12` (stereo not shown) [Example 43, 5-(4-(4-(2,3-Dihydro-1H-inden-4-yl)piperazin-1-yl)butoxy)-1,1a,3,7b-tetrahydro-2H-cyclopropa[c]quinolin-2-one]: at D2S receptor, it took 0.92 nM to reach a half-maximal effect (EC50) and the “D2S Max Act %” value is 134.9%. For the same compound, on D2L receptor, the midpoint of the response, the EC50, lay at 0.3 nM and the “D2L Max Act %” value is on record as 42.8%. On 5-HT1A receptor, it took 158 nM to reach a half-maximal effect (EC50) and the “5-HT1A Max Act %” value amounted to 67.7%. Besides, on 5-HT2A receptor, the half-inhibitory concentration (IC50) worked out at 971 nM and the “5-HT2A Max Inh %” value came out at 100.3%.
Consider `O=C1Nc2cc(OCCCCN3CCN(c4cccc5c4CCC5)CC3)ccc2C2CC12` (single isomer, unassigned) [Example 43-P2], for which, on D2S receptor, the EC50 was 0.92 nM and the “D2S Max Act %” value stood at 125.3%. Further, on D2L receptor, the EC50 was determined as 0.25 nM and the “D2L Max Act %” value is 35.7%. At 5-HT1A receptor, it took 92.4 nM to reach a half-maximal effect (EC50) and the “5-HT1A Max Act %” value stood at 60.6%. Further, on 5-HT2A receptor, the 50% inhibitory concentration (IC50) is 1130 nM and the “5-HT2A Max Inh %” value amounted to 96.6%.
As to `O=C1Nc2cc(OCCCCN3CCN(c4cccc(Cl)c4O)CC3)ccc2C2CC12` (stereo not shown) [Example 39, 5-(4-(4-(3-Chloro-2-hydroxyphenyl)piperazin-1-yl)butoxy)-1,1a,3,7b-tetrahydro-2H-cyclopropa[c]quinolin-2-one], at 5-HT2A receptor, the IC50 was 2930 nM and the “5-HT2A Max Inh %” value was 94.2%.
Regarding `O=C1Nc2cc(OCCCCN3CCN(c4cccc5[nH]ccc45)CC3)ccc2C2CC12` (stereo not shown) [Example 52, 5-(4-(4-(1H-Indol-4-yl)piperazin-1-yl)butoxy)-1,1a,3,7b-tetrahydro-2H-cyclopropa[c]quinolin-2-one], at D2L receptor, the EC50 is 0.31 nM and the “D2L Max Act %” value is 65.3%. On 5-HT2A receptor, the 50% inhibitory concentration (IC50) stood at 1590 nM and the “5-HT2A Max Inh %” value came out at 99.9%.
`O=C1Nc2cc(OCCCCN3CCN(c4ccc(Cl)s4)CC3)ccc2C2CC12` (stereo not shown) [Example 51]: at D2S receptor, the EC50 is 0.76 nM and the “D2S Max Act %” value is 111.1%. At D2L receptor, the EC50 came to 1.53 nM and the “D2L Max Act %” value came to 82.6%. For the same compound, on 5-HT1A receptor, it took 73.4 nM to reach a half-maximal effect (EC50) and the “5-HT1A Max Act %” value amounted to 79.4%. Also, on 5-HT2A receptor, the IC50 amounted to 2530 nM and the “5-HT2A Max Inh %” value worked out at 99.8%.
For the compound `O=C1Nc2cc(OCCCCN3CCN(c4cccc5c4OCC5)CC3)ccc2C2CC12` (stereo not shown) [Example 44, 5-(4-(4-(2,3-Dihydrobenzofuran-7-yl)piperazin-1-yl)butoxy)-1,1a,3,7b-tetrahydro-2H-cyclopropa[c]quinolin-2-one], on D2S receptor, the concentration for a half-maximal effect (EC50) stood at 0.93 nM and the “D2S Max Act %” value was found to be 91.0%. Moreover, at D2L receptor, it took 0.37 nM to reach a half-maximal effect (EC50) and the “D2L Max Act %” value turned out to be 44.7%. For the same compound, at 5-HT1A receptor, the EC50 was 11.2 nM and the “5-HT1A Max Act %” value is 58.9%. Further, at 5-HT2A receptor, the IC50 was 260 nM and the “5-HT2A Max Inh %” value is reported as 99.7%.
Turning to `O=C1Nc2cc(OCCCCN3CCN(c4cccc5c4OCC5)CC3)ccc2C2CC12` (single isomer, unassigned) [Example 44-P1], on D2S receptor, a half-maximal response (EC50) required 0.98 nM and the “D2S Max Act %” value came to 96.8%. For the same compound, on D2L receptor, a half-maximal response (EC50) required 0.26 nM and the “D2L Max Act %” value worked out at 45.9%. For the same compound, on 5-HT1A receptor, the half-maximal effective concentration (EC50) was 12.7 nM and the “5-HT1A Max Act %” value stood at 49.5%. On 5-HT2A receptor, the IC50 stood at 192 nM and the “5-HT2A Max Inh %” value is 99.6%.
As to `O=C1Nc2cc(OCCCCN3CCN(c4cccc5c4CC(F)(F)C5=O)CC3)ccc2C2CC12` (stereo not shown) [Example 47, 5-(4-(4-(2,2-difluoro-1-one-2,3-dihydro-1H-inden-4-yl)piperazin-1-yl)butoxy)-1,1a,3,7b-tetrahydro-2H-cyclopropa[c]quinolin-2-one], at D2S receptor, the EC50 is 0.97 nM and the “D2S Max Act %” value was 102.9%. At D2L receptor, a half-maximal effect (EC50) was put at 0.84 nM and the “D2L Max Act %” value is 35.9%. In addition, on 5-HT1A receptor, it took 207 nM to reach a half-maximal effect (EC50) and the “5-HT1A Max Act %” value came to 75.8%. On 5-HT2A receptor, the IC50 worked out at 268 nM and the “5-HT2A Max Inh %” value stood at 96.0%.
For `O=C1Nc2cc(OCCCCN3CCN(c4cccc(O)c4Cl)CC3)ccc2C2CC12` (stereo not shown) [Example 38, 5-(4-(4-(2-Chloro-3-hydroxyphenyl)piperazin-1-yl)butoxy)-1,1a,3,7b-tetrahydro-2H-cyclopropa[c]quinolin-2-one], on D2S receptor, the concentration giving a half-maximal response (EC50) came out at 0.88 nM and the “D2S Max Act %” value turned out to be 92.4%. Besides, on D2L receptor, it took 1.39 nM to reach a half-maximal effect (EC50) and the “D2L Max Act %” value worked out at 32.3%. Besides, at 5-HT2A receptor, the half-inhibitory concentration (IC50) turned out to be 4850 nM and the “5-HT2A Max Inh %” value worked out at 98.1%.
As for `O=C1Nc2cc(OCCCCN3CCN(c4cccc5ccsc45)CC3)ccc2C2CC12` (stereo not shown) [Example 48, 5-(4-(4-(Benzo[b]thiophen-7-yl)piperazin-1-yl)butoxy)-1,1a,3,7b-tetrahydro-2H-cyclopropa[c]quinolin-2-one], on D2S receptor, the concentration for a half-maximal effect (EC50) is 0.89 nM and the “D2S Max Act %” value is on record as 114.8%. At D2L receptor, the concentration giving a half-maximal response (EC50) is 0.49 nM and the “D2L Max Act %” value is given as 49.0%. On 5-HT1A receptor, the EC50 was 366 nM and the “5-HT1A Max Act %” value came out at 55.2%. On 5-HT2A receptor, the IC50 is 2410 nM and the “5-HT2A Max Inh %” value turned out to be 100.5%.
